# Data taken from patent US7276248B2, “Conjugate having a cleavable linkage for use in a liposome” (ALZA Corporation, priority 1999, dated 2007).
# Where two headings read alike, the source gives them in different places.
# Key:
# [1] = tested on: M109 cells, a mouse lung carcinoma line; assay: In vitro cytotoxicity / growth rate of M109 cells, methylene blue staining, 72 hour continuous exposure; format: cell-based; conditions: read-out: IC50 Values for M109 tumor cells after 72 hour culture with continuous exposure to formulation
# Protocol: IC50 values were taken as the drug concentration which caused a 50% inhibition of the control growth rate (IC50), as described in Example 6.
# Upon completion of the assay, the cells were fixed and evaluated using the methylene blue staining assay.
# In the assay, 1500 M109 mouse carcinoma cells from exponentially growing cultures in 200 μl aliquots (RPMI-1640 medium+10% fetal bovine serum) were plated onto 96 well flat-bottom microtiter plates. […] For each 10-fold increase in drug concentration, four drug concentration points were tested. Each test was performed in triplicate wells and in two parallel plates. The cells were treated continuously for 72 hours.
# After the 72 hour treatment period, the cultures were fixed by the addition of 50 μl 2.5% glutaraldehyde to each well for 10 minutes. […] The dye was extracted with 200 μl 0.1 N HCl for 60 minutes at 37° C. and the optical density was determined using a microplate spectrophotometer.
# The cell number determined by counting cells with a hemocytometer correlated well with the spectrophotometric absorbance. The initial cell plating density was chosen to ensure a linear relationship between cell number and absorbance at the end of the study. In each study, six wells were fixed before drug was added to determine the initial average absorbance. […]
# The growth rate was calculated as GR=(ln 2/DT). […]
# [2] = In vivo pharmacokinetics in rats after single bolus intravenous injection; conditions: time points greater than about 5 minutes
# Protocol: The in vivo pharmacokinetics of the liposomes containing cholesterol and the cholesterol-free liposome formulation was determined in rats.
# Eight rats were randomized into treatment groups as follows:
# A single intravenous injection of the test formulation was administered as a bolus dose. Blood samples were taken from each animal at the following times after injection: 30 seconds, 15 minutes, 30 minutes, 1 hour, 2 hours, 4 hours, 8 hours, 24 hours, 48 hours, 72 hours and 96 hours. […] A 200 mM iodoacetamine solution was prepared by placing 199.3 mg of iodoacetamide in 5.1 mL of 7.5% EDTA. 15 μL of the 200 mM iodoacetamide solution was placed in each 1 μL of blood sample.
# The final volume was adjusted to 1 mL with methanol. […] The samples were spun down at 3,000 rpm for 10 minutes at room temperature. 300 μL of supernatant was transferred to HPLC vials containing 300 μL insert for injection.
# 100 μL of plasma sample was denatured with 900 μL of methanol followed by centrifugation for 10 minutes at 3,000 rpm. […]
# Peak area and retention times were determined by the PE-Nelson Turbochrom (Version 4.1) system. […] The linearity of the method was evaluated suing standard responses from six concentration levels. […] The precision and accuracy of the method were evaluated from the back-calculated concentrations of the standards as well as from the quality control samples.
structure (smiles),measurement,setting,value
"CO[C@@]12[C@H](COC(N)=O)C3=C(C(=O)C(C)=C(N)C3=O)N1C[C@@H]1N[C@@H]12 [free MMC, mitomycin C]",IC50,[1]; Cysteine Concentration 0,0.285 ± 0.092 µM
same,IC50,[1]; Cysteine Concentration 1000 μM,0.3 ± 0.071 µM
same,dose remaining in the blood,[2],Virtually none
